Columns and labels:
ERK [1] = assay: Western blot of hypoxia-induced signaling, BV-2: ERK; type: cell-based, murine; conditions: BV-2 cells, 10 min hypoxia, BBD 20 μM
Procedure: (§1) On the day of experiment, culture media were replaced with glucose-free DMEM, then, gassed with 85% N2, 10% H2, and 5% CO2 for various time periods in the absence or presence of various doses of BBD.
(§2) Samples containing 25 μg of protein were separated on 12.5% (w/v) sodium dodecyl sulfate-polyacrylamide gels, and transferred to immobilon polyvinylidenedifluoride membranes (Millipore, Bedford, USA). The membranes were incubated for 2 h with 5% (w/v) dry skim milk in TBST buffer to block non-specific binding, then ERK, p38 JNK, AKT-1, COX-2, caspase-3, β-actin proteins for neuron cells were detected by a chemiluminescence detection system according to the manufacturer’s instructions (ECL, Amersham, Berkshire, UK).

Caspase-3 = assay: Western blot of hypoxia-induced signaling, BV-2: Caspase-3; type: cell-based, murine; conditions: BV-2 cells, 10 min hypoxia, BBD 20 μM
Procedure: as §1, §2

ROS in PC12 cells = assay: Hypoxia-induced ROS generation (DCF), PC12; type: cell-based, rat; conditions: hypoxia 30 min, BBD 1, 10, 20 μM
Procedure: as §1
Intracellular accumulation of ROS was determined using H2DCF-DA, which is a nonfluorescent compound that accumulates in cells following deacetylation. H2DCF then reacts with ROS to form fluorescent dichlorofluorescein (DCF). PC12 cells were plated in 96-well plates and grown for 24 h before addition of DMEM plus 10 μM H2DCF-DA, incubated for 60 min at 37°C, and treated with various concentrations of BBD for hypoxia 30 min. Cells were then washed twice at room temperature with Hank’s balanced salt solution (HBSS without phenol red). Cellular fluorescence was monitored on a Fluoroskan Ascent fluorometer (Labsystems Oy, Helsinki, Finland) using an excitation wavelength of 485 nm and emission wavelength of 538 nm.

ERK [2] = assay: Western blot of hypoxia-induced signaling, PC12: ERK; type: cell-based, rat; conditions: PC12 cells, 10 min hypoxia (Figure 5C), BBD 20 μM
Procedure: as §1, §2

focal cerebral ischemia = assay: Focal cerebral ischemia (MCAO), infarct size by TTC staining; type: in vivo, Sprague–Dawley rats; conditions: SD rats, BBD 10 mg/kg i.p. 90 min after MCAO; ischemia group 16.1%
Procedure: (§3) Twenty-four male Sprague-Dawley (SD) rats (200~250 gm) were purchased from National Animal Center, Taipei, Taiwan and randomly divided into the control (normal saline), and BBD groups. The experiment was approved by Institutional Animal Care and Use Committee, Taichung Veterans General Hospital (IACUC LA-97490). Rats were injected intraperitoneally (i.p.) with BBD (10 mg/kg) 90 min after MACO experiment. Each SD rat was anesthetized with chlorohydrate (400 mg/kg) i.p. and its body temperature was maintained at 37°C with a heating pad (CMA/150). A midline neck incision was made and the right carotid artery was exposed and separated from the vago-sympathetic trunk. The right carotid artery was loosely encircled with a 4-O suture for later occlusion. The SD rat's head was placed in a stereotaxic frame (David Kopf, CA, USA) with the nose bar positioned 4.0 mm below the horizontal line. Following a midline incision, the skull was partially removed to expose the right middle cerebral artery. The middle cerebral artery was loosely encircled with an 8-O suture for later occlusion. A focal cerebral ischemia was induced by occlusion of the right common carotid artery and the right cerebral artery (MCAO) for 60 min, followed by reperfusion. […]

MDA in BV-2 cells = assay: Lipid peroxidation (MDA) under hypoxia, BV-2; type: cell-based, murine; conditions: hypoxia 30 min, BBD 1, 10, 20 μM
[3] = system: superoxide dismutase (SOD) activity; assay: SOD activity of ischemic brain; type: in vivo, Sprague–Dawley rats; conditions: SD rat brain, BBD 10 mg/kg i.p. 90 min after MCAO
Procedure: as §3, with “Sprague–Dawley” for “Sprague-Dawley”, “rat’s” for “rat's”
Superoxide dismutase (SOD) activity was determined by a Superoxide Dismutase assay kit (Cayman, Ann Arbor, MI, USA). […]

PC12 cells [4] = assay: LDH release under hypoxia, PC12; type: cell-based, rat; conditions: BBD 1, 10, 20 μM
Procedure: (§4) Murine BV-2 microglial cell line was maintained in DMEM supplemented with 10% (v/v) FBS, 100 U/ml penicillin and 100 μg/ml streptomycin (P/S) in a humidified incubator under 5% CO2 at 37°C. Rat pheochromacytoma PC12 cell line was maintained in DMEM supplemented with 10% FBS, 5% horse serum, P/S at 37°C under 5% CO2. Confluent cultures were passaged by trypsinization. In all experiments, the cells were treated with BBD immediately before hypoxia. BBD was dissolved in DMSO. The final concentration of DMSO added to cells never exceeded 0.1% (v/v).
as §1
(§5) Cytotoxicity was determined by measuring the release of LDH. PC12 or BV-2 cells treated with various concentrations of BBD were stressed with hypoxia for one hour and the supernatant was then assayed for LDH activity. An absorbance was read at 490/630 nm using a spectraMAX 340 microtiter plate reader. Data were expressed as the mean percent of viable cells vs. the control.

MDA in PC12 cells = assay: Lipid peroxidation (MDA) under hypoxia, PC12; type: cell-based, rat; conditions: hypoxia 30 min, BBD 1, 10, 20 μM
Description: as §1
(§6) Lipid peroxidation is quantified by measuring malondialdehyde (MDA) of PC12 cells and brain tissue of SD rats by lipid peroxidation (LPO) assay kit (Cayman). This kit works on the principle of condensation of one molecule of either MDA or 4-hydroxyalkenals with two molecules of N-methyl-2-phenylindole to yield a stable chromophore. MDA levels were assayed by measuring the amount expressed in 5 × 10^5 cells of PC12 and SD brain tissue, and the absorbance at 500 nm was determined using a microplate reader (spectraMAX 340).

IL-1 = assay: Hypoxia-induced IL-1 production (ELISA), BV-2; type: cell-based, murine
Procedure: as §1
(§7) Cytokines (IL-1β, IL-6) and PGE2 were measured using ELISA kits (R&D, Minneapolis, MN, USA). The absorbance at 450 nm was determined using a microplate reader (spectraMAX 340).

JNK [5] = assay: Western blot of hypoxia-induced signaling, BV-2: JNK; type: cell-based, murine; conditions: BV-2 cells, 10 min hypoxia, BBD 20 μM
Procedure: as §1, §2

[6] = PAMPA-BBB membrane permeability assay
Procedure: The blood–brain barrier limits drug access into the brain, due to tight junctions, membrane drug transporters, and unique lipid composition. Porcine whole-brain lipid is successfully used in passive permeability test for CNS drugs.
The parallel artificial membrane permeation assay (PAMPA) was carried out in a sandwich-like 96-well PAMPA plate formed by a top filter plate containing acceptor wells and a bottom plate containing donor wells. Each composite well was divided into two chambers: 300 μl of donor solution (test article or QC standards) at the bottom and 200 μl of acceptor buffer (PBS buffer containing 5% DMSO) at the top, separated by a polyvinylidene fluoride (PVDF, 0.45 μm pore size) membrane, coated with 4 μl of 20 mg/ml porcine polar brain lipid (PBL) in n-dodecane. […] The final DMSO concentration in working stock solution is 5%. Each compound was performed in triplicate. The test compound diffused from the donor well through the lipid membrane and into the acceptor well. The sandwich plate was placed with the plate lid and incubated at room temperature for approximately 18 h. After reaching diffusion equilibration, the PAMPA sandwich plate was disassembled and the concentration of drug in the acceptor, the donor, and the reference wells was determined using a TECAN microplate reader (Durham, NC, USA).

p38 [7] = assay: Western blot of hypoxia-induced signaling, PC12: p38; type: cell-based, rat; conditions: PC12 cells, 10 min hypoxia (Figure 5C), BBD 20 μM
Procedure: as §1, §2

BV-2 cells [8] = assay: LDH release under hypoxia, BV-2; type: cell-based, murine; conditions: BBD 1, 10, 20 μM
Procedure: as §4, §1, §5

p38 [9] = assay: Western blot of hypoxia-induced signaling, BV-2: p38; type: cell-based, murine; conditions: BV-2 cells, 10 min hypoxia, BBD 20 μM
Procedure: as §1, §2

BV-2 cells [10] = assay: MTT cell viability under hypoxia, BV-2; type: cell-based, murine; conditions: hypoxia 30 min, BBD 1, 10, 20 μM
Procedure: as §4, §1
(§8) Cell viability was measured using blue formazan that was metabolized from colorless 3-(4,5-dimethyl-thiazol-2-yl)-2,5-diphenyl tetrazolium bromide (MTT) by mitochondrial dehydrogenases, which are active only in live cells. PC12 or BV2 cells were preincubated in 24-well plates at a density of 5 × 10^5 cells per well for 24 h. […] One hour later, 200 μl of solubilization solution were added to each well and absorption values read at 540 nm on microtiter plate reader (spectraMAX 340, Molecular Devices, Sunnyvale, CA, USA). Data were expressed as the mean percent of viable cells vs. control.

PC12 cells [11] = assay: MTT cell viability under hypoxia, PC12; type: cell-based, rat; conditions: hypoxia 30 min, BBD 1 to 20 μM
Procedure: as §4, §1, §8

neurons = assay: Toxicity of BBD alone to neurons; type: cell-based; conditions: BBD 100 μM alone, data not shown
AKT-1 = assay: Western blot of hypoxia-induced signaling, BV-2: AKT-1; type: cell-based, murine; conditions: BV-2 cells, 10 min hypoxia, BBD 20 μM
Procedure: as §1, §2

[12] = system: malondialdehyde (MDA) of brain tissue; assay: Lipid peroxidation (MDA) of ischemic brain tissue; type: in vivo, Sprague–Dawley rats; conditions: SD rat brain, BBD 10 mg/kg i.p. 90 min after MCAO
Procedure: as §3, with “Sprague–Dawley” for “Sprague-Dawley”, “rat’s” for “rat's”, “artery.” for “artery. The middle cerebral artery was loosely encircled with an 8-O suture for later occlusion. A focal cerebral ischemia was induced by occlusion of the right common carotid artery and the right cerebral artery (MCAO) for 60 min, followed by reperfusion.”
as §6, with “This kit works on the principle of condensation of one molecule of either MDA or 4-hydroxyalkenals with two molecules of N-methyl-2-phenylindole to yield a stable chromophore.” left out

ROS in BV-2 cells = assay: Hypoxia-induced ROS generation (DCF), BV-2; type: cell-based, murine
COX-2 [13] = assay: Western blot of hypoxia-induced signaling, BV-2: COX-2; type: cell-based, murine; conditions: BV-2 cells, 10 min hypoxia, BBD 20 μM
Procedure: as §1, §2

PGE2 = assay: Hypoxia-induced PGE2 release (ELISA), BV-2; type: cell-based, murine; conditions: BV-2 cells, hypoxia 30 min, BBD 10 and 20 μM
Procedure: as §1, §7

JNK [14] = assay: Western blot of hypoxia-induced signaling, PC12: JNK; type: cell-based, rat; conditions: PC12 cells, 10 min hypoxia (Figure 5C), BBD 20 μM
Procedure: as §1, §2

COX-2 [15] = assay: Western blot of hypoxia-induced signaling, PC12: COX-2; type: cell-based, rat; conditions: PC12 cells, 10 min hypoxia (Figure 5C), BBD 20 μM
Procedure: as §1, §2

IL-6 = assay: Hypoxia-induced IL-6 production (ELISA), BV-2; type: cell-based, murine
Procedure: as §1, §7

[16] = PAMPA-BBB, known value; no reference given; cited from earlier work
[17] = BV-2 cells, hypoxia 30 min, BBD 1, 10, 20 μM
[18] = hypoxia, concentration not given

SMILES: COc1cccc(CC(CO)C(CO)Cc2cccc(OC)c2)c1 (stereo not shown) [BBD, 3-bis (3-methoxybenzyl) butane-1,4-diol]
- reduced expression of ERK (ERK [1]): 10 ± 7%
- reduced expression of Caspase-3 (Caspase-3): 50 ± 7%
- hypoxia-induced ROS accumulation (DCF signal) (ROS in PC12 cells): decreasing the ROS accumulation
- suppressed hypoxia induced expression of ERK (ERK [2]): 9 ± 7%
- infarct size (focal cerebral ischemia): 4.9%
- hypoxia-induced increase in MDA level (MDA in BV-2 cells): suppressed
- increase of SOD activity as compared to the ischemia group [3]: 24%
- SOD activity ([3]; ischemia group 68 μ/mL): 84 μ/mL
- hypoxia-induced LDH release (PC12 cells [4]): decreased
- hypoxia-induced increase in MDA level (MDA in PC12 cells): suppressed
- hypoxia-induced IL-1 production (IL-1; [17]): dose-dependently decreased
- inhibition of hypoxia-induced IL-1 production (IL-1; [18]): 40-50%
- reduced expression of JNK (JNK [5]): 88 ± 6%
- Classification ([6]; PAMPA-BBB predicted BBB permeation class): BBB+ (BBB + compound (high BBB permeation predicted): Pe (10^-6 cm s^-1) > 4.0)
- Papp at 100 μg/ml ([6]; pig, PAMPA, pH 7.4): 20.9 ± 3.05 ×10⁻⁶ cm/s
- suppressed hypoxia induced expression of p38 (p38 [7]): -10 ± 9%
- hypoxia-induced LDH release (BV-2 cells [8]): reduced
- reduced expression of p38 (p38 [9]): -8 ± 10%
- cell viability (MTT) under hypoxia (BV-2 cells [10]): increased
- cell viability (MTT) under hypoxia (PC12 cells [11]): preserved
- toxicity to neurons (neurons): not toxic
- reduced expression of AKT-1 (AKT-1): 45 ± 6%
- decrease of MDA level as compared to the ischemia group [12]: 6%
- MDA level ([12]; ischemia group 83 μM): 78 µM
- hypoxia-induced ROS accumulation (DCF signal) (ROS in BV-2 cells; [17]): decreasing the ROS accumulation
- inhibition of hypoxia-induced ROS production (ROS in BV-2 cells; hypoxia, cell line and concentration not stated): 40-50%
- reduced expression of COX-2 (COX-2 [13]): 13 ± 7%
- hypoxia-induced PGE2 release (PGE2): decreased PGE2 release from BV-2 cells significantly
- suppressed hypoxia induced expression of JNK (JNK [14]): 86 ± 5%
- suppressed hypoxia induced expression of COX-2 (COX-2 [15]): 75 ± 11%
- hypoxia-induced IL-6 production (IL-6; [17]): dose-dependently decreased
- inhibition of hypoxia-induced IL-6 production (IL-6; [18]): 40-50%

SMILES: c1cc2c(cc1[C@H]1OC[C@H]3[C@@H]1CO[C@@H]3c1ccc3c(c1)OCO3)OCO2 [Sesamin, sesamin]
- Pe ([6]; pig, PAMPA, 100 μg/ml, pH 7.4): 0.00 ± 0.01 10^ -6 cm/s

SMILES: Cn1c(=O)c2[nH]cnc2n(C)c1=O [Theophylline, theophylline]
- Known Pe [16]: 0.12 ~ 0.18 10^ -6 cm/s
